Test results reported in paper PMC9387934, “Randomized single oral dose phase 1 study of safety, tolerability, and pharmacokinetics of Iminosugar UV-4 Hydrochloride (UV-4B) in healthy subjects” (PLoS Neglected Tropical Diseases, 2022).
Where “and” joins values, the source holds several entries; their conditions need not be identical. Identical values can stand only once.

Experiment: Phase 1a single ascending dose study: UV-4 plasma concentrations and PK parameters (LC-MS/MS, noncompartmental)
Assay type: in vivo
Conditions: for CONCENTRATION UV4: human plasma
Protocol: UV-4 ((2R,3R,4R,5S)-2-(hydroxymethyl)-1-(9-methoxynonyl)piperidine-3,4,5-triol, also called N-(9’-methoxynonyl)-1-deoxynojirimycin, or MON-DNJ) hydrochloride was evaluated in a first-in-human, randomized, single-center, double-blind, placebo-controlled, parallel group, single ascending dose Phase 1a clinical trial in healthy subjects (Figs 1 and 2, ClinicalTrials.gov Identifier NCT02061358 https://clinicaltrials.gov/ct2/show/NCT02061358). The primary objective was to determine the safety and tolerability of a single-ascending oral dose of UV-4 hydrochloride (Fig 3). […] The secondary objective was to determine PK parameters describing absorption and elimination of UV-4 following a single oral dose of UV-4 hydrochloride. Eight cohorts of eight subjects each were enrolled and completed the study. In each cohort, six subjects received UV-4 as the hydrochloride; two received placebo. Subjects were screened against study eligibility criteria up to four weeks (Days -28 to -2) before admission to the clinic (Day -1). Dosing was performed on an inpatient basis. Subjects remained in clinic for 48 hours post-dosing for PK sample collection and safety assessments and were discharged from the clinic on Day 3. Subjects returned to the clinic on Day 4 for additional safety assessments, then again on Day 9 ± 1 for a final follow-up visit.
Eligible subjects were healthy males and females, age 18–45 years, with a body mass index between 18 and 30 kg/m^2 inclusive and a minimum body weight of 60 kg. Subjects were considered healthy based on medical history, physical exam, vital signs, 12-lead electrocardiogram (ECG), clinical laboratory tests (hematology, blood chemistry, urinalysis), viral serology, and drug and alcohol screening. Male and female subjects of childbearing potential were required to use adequate contraception over the course of the clinical trial. […] Only subjects who met all inclusion and none of the exclusion criteria prior to administration of the investigational product were enrolled into the study (no exemptions were granted). A total of 64 subjects were enrolled (eight cohorts of eight subjects each). In each of the eight cohorts, six subjects were randomized to receive a single dose of UV-4 (3 to 1000 mg, depending on cohort) as the hydrochloride salt, and two subjects to receive placebo. Cohort size of six active subjects was based on analysis that increasing cohort size above six in a first-in-human study gains little in the ability to observe a drug induced event, and results in observing more events that are not related to study drug. Two of the eight subjects in each cohort (sentinel subjects; one active and one placebo) received their doses at least 48 h before the remaining subjects in each cohort.
On each day of use, bulk drug substance (UV-4B for solubilization, SAI Life Sciences Ltd. Telangana, India) was removed from a single-use container, weighed at the study center, and solubilized in 20 mL sterile water for injection (SWFI) (Hospira Inc. Illinois, United States of America). Weight of solid drug substance was converted to dose of UV-4 by applying purity and salt correction factor per pharmacy manual when preparing the dosing solution. UV-4B solution was administered orally with 10 mL of taste-masking agent, OraSweet-SF (Paddock Laboratories LLC, Minneapolis, United States of America) in a total volume of 30 mL, to assist in maintaining study blinding. Placebo was SWFI (20 mL) plus OraSweet-SF (10 mL). Concentrations and doses were calculated and expressed as the active free base form, UV-4. This methodology is consistent with USP<1121>, which recommends that the strength of a drug product or preparation is expressed in terms of the active moiety. Following consumption of active or placebo solution, the dosing container was rinsed with 50 mL of tap water also consumed by subjects. […]

COCCCCCCCCCN1C[C@H](O)[C@@H](O)[C@H](O)[C@H]1CO [UV4]
CONCENTRATION UV4 in human plasma (Cohort 7, nominal day 1, nominal hour 0, individual subjects): <LLOQ (0.500) ng/mL | CONCENTRATION UV4 in human plasma (Cohort 7, nominal day 1, nominal hour 0, subject with all samples <LLOQ): <LLOQ (0.500) ng/mL | CONCENTRATION UV4 in human plasma (Cohort 7, nominal day 1, nominal hour 0.5, individual subjects): 8420 ng/mL and 5960 ng/mL and 5510 ng/mL and 13200 ng/mL and 9650 ng/mL | CONCENTRATION UV4 in human plasma (Cohort 7, nominal day 1, nominal hour 0.5, subject with all samples <LLOQ): <LLOQ (0.500) ng/mL | CONCENTRATION UV4 in human plasma (Cohort 7, nominal day 1, nominal hour 1, individual subjects): 8390 ng/mL and 11600 ng/mL and 8700 ng/mL and 11700 ng/mL and 8870 ng/mL | CONCENTRATION UV4 in human plasma (Cohort 7, nominal day 1, nominal hour 1, subject with all samples <LLOQ): <LLOQ (0.500) ng/mL | CONCENTRATION UV4 in human plasma (Cohort 7, nominal day 1, nominal hour 1.5, individual subjects): 7250 ng/mL and 7490 ng/mL and 5760 ng/mL and 7510 ng/mL and 6190 ng/mL | CONCENTRATION UV4 in human plasma (Cohort 7, nominal day 1, nominal hour 1.5, subject with all samples <LLOQ): <LLOQ (0.500) ng/mL | CONCENTRATION UV4 in human plasma (Cohort 7, nominal day 1, nominal hour 2, individual subjects): 5560 ng/mL and 6260 ng/mL and 4660 ng/mL and 6160 ng/mL and 5490 ng/mL | CONCENTRATION UV4 in human plasma (Cohort 7, nominal day 1, nominal hour 2, subject with all samples <LLOQ): <LLOQ (0.500) ng/mL | CONCENTRATION UV4 in human plasma (Cohort 7, nominal day 1, nominal hour 2.5, individual subjects): 4270 ng/mL and 6030 ng/mL and 3950 ng/mL and 4710 ng/mL and 4800 ng/mL | CONCENTRATION UV4 in human plasma (Cohort 7, nominal day 1, nominal hour 2.5, subject with all samples <LLOQ): <LLOQ (0.500) ng/mL | CONCENTRATION UV4 in human plasma (Cohort 7, nominal day 1, nominal hour 3, individual subjects): 3650 ng/mL and 5660 ng/mL and 3610 ng/mL and 4080 ng/mL and 4540 ng/mL | CONCENTRATION UV4 in human plasma (Cohort 7, nominal day 1, nominal hour 3, subject with all samples <LLOQ): <LLOQ (0.500) ng/mL | CONCENTRATION UV4 in human plasma (Cohort 7, nominal day 1, nominal hour 4, individual subjects): 2230 ng/mL and 3760 ng/mL and 2630 ng/mL and 3120 ng/mL and 3370 ng/mL | CONCENTRATION UV4 in human plasma (Cohort 7, nominal day 1, nominal hour 4, subject with all samples <LLOQ): <LLOQ (0.500) ng/mL | CONCENTRATION UV4 in human plasma (Cohort 7, nominal day 1, nominal hour 6, individual subjects): 1120 ng/mL and 1930 ng/mL and 1770 ng/mL and 1610 ng/mL and 1730 ng/mL | CONCENTRATION UV4 in human plasma (Cohort 7, nominal day 1, nominal hour 6, subject with all samples <LLOQ): <LLOQ (0.500) ng/mL | CONCENTRATION UV4 in human plasma (Cohort 7, nominal day 1, nominal hour 9, individual subjects): 429 ng/mL and 642 ng/mL and 790 ng/mL and 588 ng/mL and 656 ng/mL | CONCENTRATION UV4 in human plasma (Cohort 7, nominal day 1, nominal hour 9, subject with all samples <LLOQ): <LLOQ (0.500) ng/mL | CONCENTRATION UV4 in human plasma (Cohort 7, nominal day 1, nominal hour 12, individual subjects): 184 ng/mL and 254 ng/mL and 352 ng/mL and 266 ng/mL and 301 ng/mL | CONCENTRATION UV4 in human plasma (Cohort 7, nominal day 1, nominal hour 12, subject with all samples <LLOQ): <LLOQ (0.500) ng/mL | CONCENTRATION UV4 in human plasma (Cohort 7, nominal day 1, nominal hour 18, individual subjects): 47.6 ng/mL and 69.6 ng/mL and 82.9 ng/mL and 80.3 ng/mL and 78.0 ng/mL | CONCENTRATION UV4 in human plasma (Cohort 7, nominal day 1, nominal hour 18, subject with all samples <LLOQ): <LLOQ (0.500) ng/mL | CONCENTRATION UV4 in human plasma (Cohort 7, nominal day 2, nominal hour 24, individual subjects): 58.7 ng/mL and 27.8 ng/mL and 38.9 ng/mL and 46.4 ng/mL and 45.6 ng/mL and 40.8 ng/mL | CONCENTRATION UV4 in human plasma (Cohort 7, nominal day 2, nominal hour 24, subject with all samples <LLOQ): <LLOQ (0.500) ng/mL | CONCENTRATION UV4 in human plasma (Cohort 7, nominal day 2, nominal hour 36, individual subjects): 17.4 ng/mL and 8.03 ng/mL and 10.9 ng/mL and 14.8 ng/mL and 12.7 ng/mL | CONCENTRATION UV4 in human plasma (Cohort 7, nominal day 2, nominal hour 36, subject with all samples <LLOQ): <LLOQ (0.500) ng/mL | CONCENTRATION UV4 in human plasma (Cohort 7, nominal day 3, nominal hour 48, individual subjects): 7.94 ng/mL and 3.58 ng/mL and 4.75 ng/mL and 6.57 ng/mL and 8.76 ng/mL and 6.60 ng/mL | CONCENTRATION UV4 in human plasma (Cohort 7, nominal day 3, nominal hour 48, subject with all samples <LLOQ): <LLOQ (0.500) ng/mL | CONCENTRATION UV4 in human plasma (Cohort 8, nominal day 1, nominal hour 0, subjects with all samples <LLOQ): <LLOQ (0.500) ng/mL | CONCENTRATION UV4 in human plasma (Cohort 8, nominal day 1, nominal hour 0.5, subjects with all samples <LLOQ): <LLOQ (0.500) ng/mL | CONCENTRATION UV4 in human plasma (Cohort 8, nominal day 1, nominal hour 1, subjects with all samples <LLOQ): <LLOQ (0.500) ng/mL | CONCENTRATION UV4 in human plasma (Cohort 8, nominal day 1, nominal hour 1.5, subjects with all samples <LLOQ): <LLOQ (0.500) ng/mL | CONCENTRATION UV4 in human plasma (Cohort 8, nominal day 1, nominal hour 2, subjects with all samples <LLOQ): <LLOQ (0.500) ng/mL | CONCENTRATION UV4 in human plasma (Cohort 8, nominal day 1, nominal hour 2.5, subjects with all samples <LLOQ): <LLOQ (0.500) ng/mL | CONCENTRATION UV4 in human plasma (Cohort 8, nominal day 1, nominal hour 3, subjects with all samples <LLOQ): <LLOQ (0.500) ng/mL | CONCENTRATION UV4 in human plasma (Cohort 8, nominal day 1, nominal hour 4, subjects with all samples <LLOQ): <LLOQ (0.500) ng/mL | CONCENTRATION UV4 in human plasma (Cohort 8, nominal day 1, nominal hour 6, subjects with all samples <LLOQ): <LLOQ (0.500) ng/mL | CONCENTRATION UV4 in human plasma (Cohort 8, nominal day 1, nominal hour 9, subjects with all samples <LLOQ): <LLOQ (0.500) ng/mL | CONCENTRATION UV4 in human plasma (Cohort 8, nominal day 1, nominal hour 12, subjects with all samples <LLOQ): <LLOQ (0.500) ng/mL | CONCENTRATION UV4 in human plasma (Cohort 8, nominal day 1, nominal hour 18, subjects with all samples <LLOQ): <LLOQ (0.500) ng/mL | CONCENTRATION UV4 (Cohort 1, nominal day 1, nominal hour 0): <LLOQ (0.500) ng/mL | CONCENTRATION UV4 (Cohort 1, nominal day 3, nominal hour 48): <LLOQ (0.500) ng/mL
